Measurements from patent publication US11707468B2, “Methods of treating pancreatic cancer” (UNIVERSITY OF MARYLAND, BALTIMORE, priority 2014, dated 2023).
Values belong to the molecule of their own block, whether it stands above or below them.

Legend:
MiaPaCa-2 = experiment: MTT cell viability / anti-proliferative assay; format: cell-based, human; details: for anti-proliferative potency compared with gemcitabine: MiaPaCa-2 cells, MTT assay after a 7-day agent treatment
Protocol: FIG. 6: Inhibition of PDAC cell proliferation: MTT assay after a 7-day agent treatment.
(§1) FIG. 7: Effect of Galeterone, analogs and Gemcitabine on PDAC cells. MTT cell viability assays were conducted on Gem-naïve and Gem-resistant cells.
The present Example presents the in vitro anti-proliferative activities of compounds in three human PDAC cell lines, including, Capan-1, MiaPaCa-2 and S2-013 because of their relative resistant nature (30, 31). The cell lines used were authenticated by short tandem repeat.
(§2) The present Example investigates the potential efficacy of galeterone and three lead ARDAs in inhibiting cell viability of both gemcitabine naïve (Gem-naïve) and gemcitabine/erlotinib resistant human pancreatic cancer cells in vitro. […] Galeterone and its analogs show significant anti-proliferative active against both gemcitabine naïve and gemcitabine resistant PDAC cells.

Panc-1 cells = experiment: Wound-healing (scratch) migration assay; format: cell-based, human; details: Panc-1, 5 μM, 12 hours
Protocol: FIG. 12: Panc-1 and S2-013 cells plated in 24-well plate in a monolayer and scratch wound made with a 200 μl pipette tip and treated with indicated compounds at 5 μM for 12 hours.
The present Example investigates whether ARDAs inhibit the migratory and invasive potential of PDAC cells. Decreased invasive potential of PDAC cells was shown through wound-healing and matrigel-coated Boyden chambers assays. Cells grown to a monolayer were used in migration assay after a scratch was made and incubated for 12 hours. […] In contrast, CGP and Gem were not effective. As expected these compounds also exerted strong anti-invasive efficacy against Capan-1 cells. The tested concentrations at time (12 h) of assay, all cells in each treatment group were ≥90% viable.

MiaPaCa-GR [1] = experiment: Apoptosis, flow cytometry Annexin V and PI staining; format: cell-based, human; details: MiaPaCa-GR cells, 24 hours
Protocol: (§3) FIG. 18: Apoptotic induction of Gal and Analogs and Gem-resistant PDAC cells. (FIG. 18A) Galeterone and analogs induce apoptosis in S2-013 cells analyzed by acridine orange ethidium bromide staining. Cells were treated with 2.5 μM. (FIG. 18B) Galeterone and analogs were compared to gemcitabine in inducing apoptosis analyzed by flow cytometry in MiaPaCa-GR cells.
(§4) Cells treated with indicated doses for 24 hours were analyzed by acridine orange ethidium bromide assay and also by FACS analysis using Annexin V and PI staining following manufacturer's protocol. […] Galeterone and analogs induce apoptosis in S2-013 cells analyzed by acridine orange ethidium bromide staining ([…]). Galeterone and analogs were compared to gemcitabine in inducing both early and late apoptosis analyzed by flow cytometry (FIG. 18B).

[2] = tested on: Gem-naïve and Gem-resistant PDAC cells; experiment: Colony formation assay; format: cell-based, human
Protocol: (§5) S2-013 (FIG. 10A), MiaPaCa-2 (FIG. 10B) and MiaPaCa-GTR (FIG. 10C) show cells seeded at 1000 cells/well and treated with compounds (μM) for 14 days. Media was replaced every 72 hours. Cells were stained with 0.05% crystal violet. Conditioned media from MiaPaCa-2 cells after being treated with indicated compounds was separated on a zymogram gel to analyze the proteolytic activity of MMP9 after treatment (FIG. 10D).
FIG. 11: Inhibition of colony formation in S2-013 cells.
S2-013, MiaPaCa-2 and MiaPaCa-GTR were seeded at 1000 cells/well and treated with compounds (μM) for 14 days. Media was replaced every 72 h. Cells were stained with 0.05% crystal violet (FIG. 10A-C).

S2-013 [3] = experiment: Apoptosis, acridine orange ethidium bromide staining; format: cell-based, human; details: S2-013 metastatic cell line, 2.5 μM, 24 hours
Protocol: as §3, §4

S2-013 [4] = experiment: MTT cell viability assay; format: cell-based; details: Homo sapiens, S2-013, single agent
Protocol: as §1, §2

MMP9 = experiment: Zymography of conditioned media from MiaPaCa-2 cells; format: cell-based, human; details: conditioned media of MiaPaCa-2 cells treated 3 days
Protocol: as §5
Zymography assays were performed by seeding cells in 10 cm plates in phenol-red free media with no fetal bovine serum (FBS) and treated for 3 days. Media from cells were concentrated using amicon ultra filtration columns and normalized protein run on a 10% gelatin gels. Conditioned media from MiaPaCa-2 cells after being treated with indicated compounds was separated on a zymogram gel to analyze the proteolytic activity of MMP9 after treatment (FIG. 10D). […] The ARDAs caused significant depletion of matrix metalloproteinases (MMPs).

MiaPaCa-GTR = experiment: MTT cell viability assay; format: cell-based; details: Homo sapiens, MiaPaCa-GTR (gemcitabine/erlotinib resistant), single agent
Protocol: as §1
(§6) Examples below were preformed using a panel of PDAC cells from primary tumors (MiaPaca-2, Panc-1, Capan-1 and HS766T), metastatic lesions (S2-013 and S2VP10) and drug-resistant MiaPaCa-GR (gemcitabine resistant-200 nM) and MiaPaCa-GTR (erlotinib-2 μM/gemcitabine-200 nM) cell lines. The activities of ARDAs and Gemcitabine (Gem) can be evaluated using complementary assays and molecular determinants can also be identified in a panel of human PDAC cells. The mechanism(s) of action of ARDAs alone and in combination with Gem with the primary goal to identify the key mediators for their activities in PDAC cells are disclosed here. […] Initially four cell line (2 Gem-naïve and the two Gem-resistant lines) will be used. Key findings derived from these cell lines can be validated in additional cell lines if necessary. How these agents modulate Mnk1/2-peIF4E and NFκ-B can also be focused on.
(§7) The present Example investigates the potential efficacy of galeterone and three lead ARDAs in inhibiting cell viability of both gemcitabine naïve (Gem-naïve) and gemcitabine/erlotinib resistant human pancreatic cancer cells in vitro. […]

MiaPaCa-GR [5] = experiment: MTT cell viability assay; format: cell-based; details: Homo sapiens, MiaPaCa-GR (gemcitabine resistant), single agent
Protocol: as §1, §6, §7

[6] = compared to VN/124-1, reference (1); cited from earlier work
androgen receptor = molecular target: T1, androgen receptor (Homo sapiens, UniProt P10275); details: compared to VN/124-1, reference (1); cited from earlier work
T1 sequence (P10275 1-920): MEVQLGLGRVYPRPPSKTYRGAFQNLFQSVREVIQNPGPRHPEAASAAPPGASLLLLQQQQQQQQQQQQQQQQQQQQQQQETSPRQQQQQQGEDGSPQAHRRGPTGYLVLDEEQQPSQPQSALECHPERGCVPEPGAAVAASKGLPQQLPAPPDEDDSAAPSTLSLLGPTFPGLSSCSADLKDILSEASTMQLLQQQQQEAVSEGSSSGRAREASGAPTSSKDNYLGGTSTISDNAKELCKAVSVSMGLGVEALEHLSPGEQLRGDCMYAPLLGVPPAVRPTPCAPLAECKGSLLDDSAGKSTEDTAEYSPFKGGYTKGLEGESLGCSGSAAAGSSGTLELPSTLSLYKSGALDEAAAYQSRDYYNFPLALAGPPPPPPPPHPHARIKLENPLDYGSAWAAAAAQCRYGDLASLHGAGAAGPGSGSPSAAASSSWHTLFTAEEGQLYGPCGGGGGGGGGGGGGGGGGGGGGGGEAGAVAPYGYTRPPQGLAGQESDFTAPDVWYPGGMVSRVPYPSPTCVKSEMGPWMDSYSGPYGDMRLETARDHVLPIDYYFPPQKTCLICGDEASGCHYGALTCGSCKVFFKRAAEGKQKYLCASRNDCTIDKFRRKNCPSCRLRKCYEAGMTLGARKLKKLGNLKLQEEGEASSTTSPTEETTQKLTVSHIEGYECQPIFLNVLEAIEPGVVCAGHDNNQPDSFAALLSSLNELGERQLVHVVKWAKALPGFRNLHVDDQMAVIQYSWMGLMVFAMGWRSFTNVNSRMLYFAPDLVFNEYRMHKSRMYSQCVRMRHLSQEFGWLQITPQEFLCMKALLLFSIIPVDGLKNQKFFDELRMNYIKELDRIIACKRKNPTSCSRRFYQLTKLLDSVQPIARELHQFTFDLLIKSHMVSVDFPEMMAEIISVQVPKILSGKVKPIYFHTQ

[7] = tested on: patients with advanced-stage pancreatic cancer; details: in combination with gemcitabine, Moore et al. 2007; cited from earlier work
[8] = 1000 cells/well, treated 14 days, alone or in combination with gemcitabine

SMILES: C[C@]12CC[C@H](n3ccnc3)CC1=CC[C@@H]1[C@@H]2CC[C@]2(C)C(n3cnc4ccccc43)=CC[C@@H]12 [VNPP433-3β]
anti-proliferative potency compared with gemcitabine (MiaPaCa-2): almost as potent as gemcitabine

SMILES: C[C@]12CC[C@H](OCc3ccncc3)CC1=CCC1C2CC[C@]2(C)C(n3cnc4ccccc43)=CCC12 (stereo partly shown) [VNPP414]
cell migration (Panc-1 cells): significant inhibition
anti-proliferative potency compared with gemcitabine (MiaPaCa-2): almost as potent as gemcitabine

GI50 (MiaPaCa-GTR): 2.19 µM
GI50 (MiaPaCa-GR [5]): 7.08 µM
GI50 (MiaPaCa-2; Homo sapiens, MIA PaCa-2, MiaPaCa-2, single agent, MTT): 1.23 µM
SMILES: C[C@]12CC[C@H](O)CC1=CC[C@@H]1[C@@H]2CC[C@]2(C)C(n3cnc4ccccc43)=CC[C@@H]12 [Galeterone, galeterone]
induction of apoptosis (MiaPaCa-GR [1]): significantly induce apoptosis
colony formation [2, 8]: significantly inhibited
cell migration (Panc-1 cells): significant inhibition
induction of apoptosis (S2-013 [3]): significantly induce apoptosis
GI50 (S2-013 [4]): 0.49 µM
MMP9 secretion (MMP9; alone): decreases MMP9 secretion
MMP9 secretion (MMP9; in combination with gemcitabine): decreases MMP9 secretion
anti-proliferative potency compared with gemcitabine (MiaPaCa-2): almost as potent as gemcitabine

SMILES: Nc1ccn([C@@H]2O[C@H](CO)[C@@H](O)C2(F)F)c(=O)n1 [Gemcitabine, reference compound]
colony formation [2, 8]: inhibit colony formation
cell migration (Panc-1 cells): not effective

SMILES: C[C@]12CC[C@H](OC(=O)n3ccnc3)CC1=CCC1C2CC[C@]2(C)C(n3cnc4ccccc43)=CCC12 (stereo partly shown) [VNPT-55]
anti-proliferative (AP) potency relative to VN/124-1 [6]: 4 fold
ARD potency relative to VN/124-1 (androgen receptor): 8 fold
anti-proliferative potency compared with gemcitabine (MiaPaCa-2): almost as potent as gemcitabine

SMILES: C#Cc1cccc(Nc2ncnc3cc(OCCOC)c(OCCOC)cc23)c1 [erlotinib]
median overall survival benefit [7]: less than four weeks

SMILES: Nc1ncnc2n[nH]c(Nc3ccc(F)cc3)c12 [CGP, reference compound]
colony formation ([2]; CGP at 2.5 μM): did not significantly affect colony formation
cell migration (Panc-1 cells): not effective
